Consider six compounds from patent US20110311990A1, “TETRANOR-PGEM/PGAM SPECIFIC IMMUNOGENS, ANTIBODIES, TRACERS, ASSAY KITS AND METHODS FOR MAKING SAME” (Cayman Chemical Company, Incorporated, priority 2010, published 2011).

For series [1] the following is noted: humans; cited from earlier work.
Series [2] relates to tetranor-PGEM EIA Antiserum. Put plainly: Cross-reactivity testing of tetranor-PGEM antibody (polyclonal antiserum) by competitive EIA. The class given is binding, rabbit. The conditions noted are these: for Cross-reactivity (% XR): Specificity of the tetranor-PGEM EIA Antiserum, Example 4 kit performance characteristics; for % XR: percent cross-reactivity = IC50 of tetranor-PGEM / IC50 of test compound x 100, Example 2, antiserum raised with tetranor-PGEM-KLH immunogen. Here is the method: (§1) Rabbit immunizations were performed by Robert Sargeant Antibodies (655 Ash Street, Ramona, Calif. 92065) as follows: Male New Zealand White Rabbits 9-10 weeks of age, were immunized with Complete Freund's Adjuvant (CFA) initially, followed by Incomplete Freund's Adjuvant (IFA) for all subsequent injections. Immunogen 1 (200 μg; prepared in Step A, Procedure 1 of this Example; alternatively, Immunogen 1 A, which was prepared in Step A, Procedure 1A of this Example, has been used to produce antiserum according to this immunization method) was injected for the first immunization and 100 μg for boosts. The immunogen was diluted to one milliliter with sterile saline and combined with one milliliter of the appropriate adjuvant. The antigen and adjuvant were mixed thoroughly to form a stable emulsion which is injected subcutaneously. Blood was collected from the central ear artery and allowed to clot and retract. The serum was decanted and clarified by centrifugation before freezing.
(§2) Antisera (AS) from multiple bleeds from multiple rabbits were screened by titration on a 96-well microplate with detection of specific Ab based on its ability to bind the tetranor-PGEM-AChE conjugate (diluted 1:1000). The next screen consisted of a sensitivity screen selecting for AS with a suitable detection limit. The next screen excluded AS with unacceptably high cross-reactivity (experiment described below) with parent metabolites, tetranor-PGFM, and tetranor-PGDM. The final screen consisted of urinary measurements to confirm normal biological levels of tetranor-PGEM, and recovery experiments.
(§3) To determine cross-reactivity of an antibody, set up the standard curve using optimal tracer and Ab dilutions according the kit instructions. Tetranor-PGEM was diluted to 10 ng/ml for the first point in the standard curve and diluted 2.5-fold serially 7 times. First standard dilutions (10 μg/ml) of tetranor-PGDM, tetranor-PGJM, tetranor-PGAM, and tetranor-PGFM were prepared and 7 additional 6-fold serial dilutions were performed. IC50s of all compounds were determined and each percent cross-reactivity (% XR) values of the potentially cross-reactive compounds was determined by dividing the IC50 of tetranor-PGEM by the IC50 of the test compound and multiplying by 100. See the chart below for determined % XR values.

The test system of the next series is tetranor-PGAM antibody. Put plainly: Cross-reactivity testing of tetranor-PGAM antibody (polyclonal antiserum) by competitive EIA. The series is classed as binding, rabbit. Conditions: percent cross-reactivity = IC50 of tetranor-PGAM / IC50 of test compound x 100; Example 3, antiserum raised with tetranor-PGAM-KLH immunogen. How it is done: as §1, with “Immunogen 3” for “Immunogen 1”, “prepared according to” for “prepared in”, “Step A” for “Step A, Procedure 1”, “this Example)” for “this Example; alternatively, Immunogen 1 A, which was prepared in Step A, Procedure 1A of this Example, has been used to produce antiserum according to this immunization method)”
as §2, with “tetranor-PGAM-AChE” for “tetranor-PGEM-AChE”, “(Tracer 4, diluted” for “(diluted”, “tetranor-PGAM,” for “tetranor-PGEM,”, “experiments. Only one AS passed all screens.” for “experiments.”
as §3, with “Tetranor-PGAM” for “Tetranor-PGEM”, “tetranor-PGEM,” for “tetranor-PGJM, tetranor-PGAM,”, “tetranor-PGAM” for “tetranor-PGEM”

With `CCCCC[C@H](O)/C=C/[C@H]1[C@H](O)CC(=O)[C@@H]1C/C=C\CCCC(=O)O` [PGE2], the “infused dose of PGE2 that appears as tetranor-PGEM in the urine” value in series [1] is recorded as “About 15%”.
For `O=C(O)CCCCC(=O)CC[C@H]1C=CC(=O)[C@@H]1CCC(=O)O` [tetranor-PGAM], in series [2], the “Cross-reactivity (% XR)” value is reported as 2,034% and the “% XR” value was 2,034%. Further, the “% XR” value with tetranor-PGAM antibody is 100%.
For the compound `O=C(O)CCCCC(=O)CC[C@H]1C(=O)C[C@H](O)[C@@H]1CCC(=O)O` [tetranor-PGDM], in series [2], the “Cross-reactivity (% XR)” value was 1.5% and the “% XR” value was 1.5%. For the same compound, the “% XR” value with tetranor-PGAM antibody amounted to 5.3%.
In the case of `O=C(O)CCCCC(=O)CC[C@H]1[C@H](O)CC(=O)[C@@H]1CCC(=O)O` [tetranor-PGEM, 11α-hydroxy-9,15-dioxo-13,14-dihydro-2,3,4,5-tetranor-prostan-1,20-dioic acid], in series [2], the “Cross-reactivity (% XR)” value was 100% and the “% XR” value is recorded as 100%. In the series on tetranor-PGAM antibody, the “% XR” value was determined as 25.1%.
For the compound `O=C(O)CCCCC(=O)CC[C@@H]1[C@@H](CCC(=O)O)[C@@H](O)C[C@H]1O` [tetranor-PGFM], in series [2], the “Cross-reactivity (% XR)” value is recorded as 7.8% and the “% XR” value is reported as 7.8%. The “% XR” value in the series with tetranor-PGAM antibody is recorded as 1.0%.
`O=C(O)CCCCC(=O)CC[C@H]1C(=O)C=C[C@@H]1CCC(=O)O` [tetranor-PGJM]: in series [2], the “Cross-reactivity (% XR)” value was 27.4% and the “% XR” value is 27.4%.
